Experimental data as given in patent US20210338555A1, “COMPOSITION AND METHOD OF INHIBITING MINERALOCORTICOID RECEPTOR ACTIVITY BY APPLYING IT TO THE SKIN” (AMOREPACIFIC CORPORATION, priority 2018, published 2021).

Tested on: mineralocorticoid receptor
Assay: MMTV-luciferase reporter assay of mineralocorticoid receptor activity in CV-1 cells
Assay type: cell-based
Details: 10 μg/ml compound, after 2 hours dexamethasone (1 nM), cultivated 24 hours, FIG. 2
Experimental: RNA was separated from a CV-1 cell and PCR was performed using reverse transcriptase, so gene expressions of a glucocorticoid receptor (GR) and a mineralocorticoid receptor (MR) were confirmed, and the results are shown in FIG. 1.
The CV-1 cell was cultivated in a 24-well flat incubator. After 24 hours, the incubating medium was replaced with a 10% charcoal dextran-treated FBS-DMEM, and then after 4 hours, a mixing DNA of a MMTV-luciferase reporter plasmid and an internal Control Group of a pRL-SV-40 plasmid was transfected using TRANSFAST™ reagent (Promega). After 24 hours, it was treated with 10 μg/ml of the compound (INDOFINE Chemical Company, Inc.) represented by Chemical Formula 1-1, and after 2 hours, was treated with dexamethasone (1 nM), and then cultivated for 24 hours. The luciferase activity in the cell lysate was measured using a Dual-Luciferase Reporter Assay System (Promega), and the transfection efficiency was normalized by revising Renilla luciferase activity to measure a relative luciferase activity, and the results are shown in FIG. 2.

`O=c1c(-c2ccc(O)c(O)c2)coc2cc(O)ccc12` [Chemical Formula 1-1] was tested, and the “relative luciferase activity (mineralocorticoid receptor activity induced by dexamethasone)” value was “deteriorated activity of the mineralocorticoid receptor”.
